Assay results from paper PMC5218480 (PLoS ONE, 2017).

Test system: MV-4-11 cells
Experiment: Gene expression microarray analysis (Affymetrix PrimeView) and GSEA
Type: cell-based, human
Set-up: RFU PODN (11730768_x_at) / Fold change /veh PODN (11730768_x_at) / RFU LINC00158 (11744669_a_at) / Fold change /veh LINC00158 (11744669_a_at) / RFU DUSP10 (11751237_a_at) / Fold change /veh DUSP10 (11751237_a_at) / RFU ID3 (11757404_x_at) / Fold change /veh ID3 (11757404_x_at) / RFU PLEKHG5 (11737974_s_at) / Fold change /veh PLEKHG5 (11737974_s_at) / RFU LRRC4B (11730491_at) / Fold change /veh LRRC4B (11730491_at) / RFU GIMAP4 (11747438_a_at) / Fold change /veh GIMAP4 (11747438_a_at) / RFU KRT8 (11758183_x_at) / Fold change /veh KRT8 (11758183_x_at) / RFU CNN1 (11734310_a_at) / Fold change /veh CNN1 (11734310_a_at) / RFU VPS37D (11726825_at) / Fold change /veh VPS37D (11726825_at) / RFU C10orf10 (11716522_x_at) / Fold change /veh C10orf10 (11716522_x_at) / RFU KIR2DL2 /// KIR2DL4 /// KIR2DL5A /// KIR2DL5B /// KIR2DS1 /// KIR2DS2 /// KIR2DS3 /// KIR2DS4 /// KIR3DL3 /// KIR3DL3 /// KIR3DS1 (11738374_at) / Fold change /veh KIR2DL2 /// KIR2DL4 /// KIR2DL5A /// KIR2DL5B /// KIR2DS1 /// KIR2DS2 /// KIR2DS3 /// KIR2DS4 /// KIR3DL3 /// KIR3DL3 /// KIR3DS1 (11738374_at) / RFU C1QL1 (11718748_at) / Fold change /veh C1QL1 (11718748_at) / RFU TMPRSS4 (11747572_a_at) / Fold change /veh TMPRSS4 (11747572_a_at) / RFU HAMP (11756126_x_at) / Fold change /veh HAMP (11756126_x_at) / RFU RNFT2 (11725882_a_at) / Fold change /veh RNFT2 (11725882_a_at) / RFU NR4A2 (11747474_a_at) / Fold change /veh NR4A2 (11747474_a_at) / RFU ABCC12 (11746883_a_at) / Fold change /veh ABCC12 (11746883_a_at) / RFU TMEM136 (11760407_x_at) / Fold change /veh TMEM136 (11760407_x_at) / RFU CLDN22 /// WWC2 (11732394_at) / Fold change /veh CLDN22 /// WWC2 (11732394_at) / RFU HLA-DPB1 (11760878_x_at) / Fold change /veh HLA-DPB1 (11760878_x_at) / RFU SPINT1 (11716480_a_at) / Fold change /veh SPINT1 (11716480_a_at) / RFU GAP43 (11754022_s_at) / Fold change /veh GAP43 (11754022_s_at) / RFU A4GNT (11735810_at) / Fold change /veh A4GNT (11735810_at) / RFU PRB3 (11715151_x_at) / Fold change /veh PRB3 (11715151_x_at) / RFU TUBB4B (11761932_at) / Fold change /veh TUBB4B (11761932_at) / RFU CAPN14 (11732068_a_at) / Fold change /veh CAPN14 (11732068_a_at) / RFU TMCC2 (11721928_a_at) / Fold change /veh TMCC2 (11721928_a_at) / RFU IRGQ (11745062_a_at) / Fold change /veh IRGQ (11745062_a_at) / RFU FAM174B (11720279_a_at) / Fold change /veh FAM174B (11720279_a_at) / RFU TMPRSS4 (11748680_a_at) / Fold change /veh TMPRSS4 (11748680_a_at) / RFU FAM212B (11763350_a_at) / Fold change /veh FAM212B (11763350_a_at) / RFU PLEKHG5 (11743358_a_at) / Fold change /veh PLEKHG5 (11743358_a_at) / RFU ZSCAN30 (11745921_a_at) / Fold change /veh ZSCAN30 (11745921_a_at) / RFU CMKLR1 (11741424_a_at) / Fold change /veh CMKLR1 (11741424_a_at) / RFU LOC101060620 /// MAPK8IP1 (11723275_at) / Fold change /veh LOC101060620 /// MAPK8IP1 (11723275_at) / RFU SPTSSB (11747773_x_at) / Fold change /veh SPTSSB (11747773_x_at) / RFU PRSS12 (11739890_at) / Fold change /veh PRSS12 (11739890_at) / RFU BIN1 (11741810_x_at) / Fold change /veh BIN1 (11741810_x_at) / RFU WNT11 (11732464_a_at) / Fold change /veh WNT11 (11732464_a_at) / RFU C10orf10 (11716521_a_at) / Fold change /veh C10orf10 (11716521_a_at) / RFU C5orf56 (11738089_at) / Fold change /veh C5orf56 (11738089_at) / RFU CYB561 (11721691_x_at) / Fold change /veh CYB561 (11721691_x_at) / RFU ANKRD19P (11752326_a_at) / Fold change /veh ANKRD19P (11752326_a_at) / RFU OR2T12 /// OR2T33 /// OR2T8 (11738714_s_at) / Fold change /veh OR2T12 /// OR2T33 /// OR2T8 (11738714_s_at) / RFU VCAN (11748164_a_at) / Fold change /veh VCAN (11748164_a_at) / RFU JSRP1 (11732532_at) / Fold change /veh JSRP1 (11732532_at) / RFU KRTAP10-11 (11738290_x_at) / Fold change /veh KRTAP10-11 (11738290_x_at) / RFU MYO3A (11730013_a_at) / Fold change /veh MYO3A (11730013_a_at) / RFU EBF3 (11725865_a_at) / Fold change /veh EBF3 (11725865_a_at) / RFU CAMK2N1 (11719241_x_at) / Fold change /veh CAMK2N1 (11719241_x_at) / RFU C5orf56 (11738088_a_at) / Fold change /veh C5orf56 (11738088_a_at) / RFU OLFML3 (11715873_a_at) / Fold change /veh OLFML3 (11715873_a_at) / RFU LOC100653217 /// NTM (11731650_a_at) / Fold change /veh LOC100653217 /// NTM (11731650_a_at) / RFU MAPK11 (11762145_a_at) / Fold change /veh MAPK11 (11762145_a_at) / RFU FIZ1 (11724087_x_at) / Fold change /veh FIZ1 (11724087_x_at) / RFU OASL (11726364_x_at) / Fold change /veh OASL (11726364_x_at) / RFU SOX15 (11748057_x_at) / Fold change /veh SOX15 (11748057_x_at) / RFU CD79A (11719716_a_at) / Fold change /veh CD79A (11719716_a_at) / RFU HIST1H1D (11736915_at) / Fold change /veh HIST1H1D (11736915_at) / RFU CASKIN2 (11723855_a_at) / Fold change /veh CASKIN2 (11723855_a_at) / RFU LOC730098 (11760151_x_at) / Fold change /veh LOC730098 (11760151_x_at) / RFU OR4N2 (11742367_at) / Fold change /veh OR4N2 (11742367_at) / RFU PRRT2 (11749266_a_at) / Fold change /veh PRRT2 (11749266_a_at) / RFU SNX32 (11753110_a_at) / Fold change /veh SNX32 (11753110_a_at) / RFU CDHR5 (11726645_a_at) / Fold change /veh CDHR5 (11726645_a_at) / RFU RCAN1 (11760418_a_at) / Fold change /veh RCAN1 (11760418_a_at) / RFU FAM167A (11723789_a_at) / Fold change /veh FAM167A (11723789_a_at) / RFU FAM26E (11764081_at) / Fold change /veh FAM26E (11764081_at) / RFU ISYNA1 (11749810_s_at) / Fold change /veh ISYNA1 (11749810_s_at) / RFU ACY1 (11761880_at) / Fold change /veh ACY1 (11761880_at) / RFU 11764098_at / Fold change /veh 11764098_at / RFU SAMD14 (11745864_x_at) / Fold change /veh SAMD14 (11745864_x_at) / RFU NPB (11741838_a_at) / Fold change /veh NPB (11741838_a_at) / RFU TMPRSS6 (11731388_a_at) / Fold change /veh TMPRSS6 (11731388_a_at) / RFU KRTAP10-2 (11738614_at) / Fold change /veh KRTAP10-2 (11738614_at) / RFU ARHGAP8 /// PRR5-ARHGAP8 (11727945_x_at) / Fold change /veh ARHGAP8 /// PRR5-ARHGAP8 (11727945_x_at) / RFU KRTAP5-7 /// NADSYN1 (11734609_at) / Fold change /veh KRTAP5-7 /// NADSYN1 (11734609_at) / RFU RASL12 (11751679_a_at) / Fold change /veh RASL12 (11751679_a_at) / RFU CDKN2B (11736163_a_at) / Fold change /veh CDKN2B (11736163_a_at) / RFU PRF1 (11729649_at) / Fold change /veh PRF1 (11729649_at) / RFU, ZNF638 /// ZNF638-IT1 / Fold change vs veh, ZNF638 /// ZNF638-IT1 / RFU, PANK3 / Fold change vs veh, PANK3 / RFU, SH3YL1 / Fold change vs veh, SH3YL1 / RFU, ZEB2 / Fold change vs veh, ZEB2 / RFU, NRIP1 / Fold change vs veh, NRIP1 / RFU, PTTG1IP / Fold change vs veh, PTTG1IP / RFU, CAPN2 / Fold change vs veh, CAPN2 / RFU, MED14 / Fold change vs veh, MED14 / RFU, SNORA58 / Fold change vs veh, SNORA58 / RFU, C1orf63 / Fold change vs veh, C1orf63 / RFU, LRRFIP1 / Fold change vs veh, LRRFIP1 / RFU, NDUFAF7 / Fold change vs veh, NDUFAF7 / RFU, SLC12A2 / Fold change vs veh, SLC12A2 / RFU, IBTK / Fold change vs veh, IBTK / RFU, ESF1 / Fold change vs veh, ESF1 / Fold change vs veh, TMEM50B / RFU, TAOK1 / Fold change vs veh, TAOK1 / RFU, ACBD3 / Fold change vs veh, ACBD3 / RFU, TMA16 / Fold change vs veh, TMA16 / RFU, RWDD3 / Fold change vs veh, RWDD3 / RFU, BCAT1 / Fold change vs veh, BCAT1 / RFU, EDEM3 / Fold change vs veh, EDEM3 / RFU, TMEM33 / Fold change vs veh, TMEM33 / RFU, WDR75 / Fold change vs veh, WDR75 / RFU, AHCTF1 / Fold change vs veh, AHCTF1 / RFU, TFRC / Fold change vs veh, TFRC / RFU, ZDHHC17 / Fold change vs veh, ZDHHC17 / RFU, NOM1 / Fold change vs veh, NOM1 / RFU, ARL8B / Fold change vs veh, ARL8B / RFU, ZBTB11 / Fold change vs veh, ZBTB11 / RFU, TAMM41 / Fold change vs veh, TAMM41 / RFU, KIAA1704 /// LOC100996395 / Fold change vs veh, KIAA1704 /// LOC100996395 / RFU, ING1 / Fold change vs veh, ING1 / RFU, TRMT61B / Fold change vs veh, TRMT61B / RFU, FUBP3 / Fold change vs veh, FUBP3 / RFU, TP53 / Fold change vs veh, TP53 / RFU, TNKS2 / Fold change vs veh, TNKS2 / RFU, ZFP14 / Fold change vs veh, ZFP14 / RFU, ACTR2 / Fold change vs veh, ACTR2 / RFU, PPP3R1 / Fold change vs veh, PPP3R1 / RFU, PIK3R1 / Fold change vs veh, PIK3R1 / RFU, HNRNPA1 / Fold change vs veh, HNRNPA1 / RFU, RNF170 / Fold change vs veh, RNF170 / RFU, ZNF28 / Fold change vs veh, ZNF28 / RFU, RNGTT / Fold change vs veh, RNGTT / RFU, OGT / Fold change vs veh, OGT / RFU, BRD1 / Fold change vs veh, BRD1 / RFU, MARS / Fold change vs veh, MARS / RFU, ZNF655 / Fold change vs veh, ZNF655 / RFU, FAHD1 / Fold change vs veh, FAHD1 / RFU, BDP1 / Fold change vs veh, BDP1 / RFU, LRRCC1 / Fold change vs veh, LRRCC1 / RFU, ARID1A / Fold change vs veh, ARID1A / RFU, ZNF146 / Fold change vs veh, ZNF146 / RFU, ZNF330 / Fold change vs veh, ZNF330 / RFU, GPN3 / Fold change vs veh, GPN3 / RFU, C9orf123 / Fold change vs veh, C9orf123 / RFU, N4BP2L2 / Fold change vs veh, N4BP2L2 / RFU, ARFIP1 / Fold change vs veh, ARFIP1 / RFU, FAM179B / Fold change vs veh, FAM179B / RFU, BCL10 / Fold change vs veh, BCL10 / RFU, UHRF1BP1L / Fold change vs veh, UHRF1BP1L / RFU, BET1 / Fold change vs veh, BET1 / RFU, CNOT2 / Fold change vs veh, CNOT2 / RFU, ZNF268 / Fold change vs veh, ZNF268 / Fold change vs veh, ZNF507 / RFU, DGCR2 / Fold change vs veh, DGCR2 / RFU, WDSUB1 / Fold change vs veh, WDSUB1 / Fold change vs veh, HSP90B1 /// MIR3652 / RFU, ADSS / Fold change vs veh, ADSS / RFU, GK / Fold change vs veh, GK / RFU, ZNF148 / Fold change vs veh, ZNF148 / RFU, TAF9 / Fold change vs veh, TAF9 / RFU, SLC1A5 / Fold change vs veh, SLC1A5 / RFU, SLMO2 / Fold change vs veh, SLMO2 / RFU, ABCC4 / Fold change vs veh, ABCC4 / RFU, LOC101060439 /// RAP1B / Fold change vs veh, LOC101060439 /// RAP1B / RFU, RFX7 / Fold change vs veh, RFX7 / RFU, GTPBP10 / Fold change vs veh, GTPBP10 / RFU, CNEP1R1 / Fold change vs veh, CNEP1R1 / RFU, BIVM-ERCC5 /// ERCC5 / Fold change vs veh, BIVM-ERCC5 /// ERCC5 / RFU, ILF3 / Fold change vs veh, ILF3 / RFU 11762660_at / Fold change /veh 11762660_at / RFU VCAN (11757783_s_at) / Fold change /veh VCAN (11757783_s_at) / RFU DDX43 (11728927_at) / Fold change /veh DDX43 (11728927_at) / RFU KRT8 (11758188_x_at) / Fold change /veh KRT8 (11758188_x_at) / RFU NKD1 (11759106_at) / Fold change /veh NKD1 (11759106_at) / RFU SRD5A1 (11742802_a_at) / Fold change /veh SRD5A1 (11742802_a_at) / RFU TPSAB1 /// TPSB2 (11721975_s_at) / Fold change /veh TPSAB1 /// TPSB2 (11721975_s_at) / RFU GSTM3 (11746129_a_at) / Fold change /veh GSTM3 (11746129_a_at) / RFU IL23R (11737362_x_at) / Fold change /veh IL23R (11737362_x_at) / RFU TMEM51 (11727254_a_at) / Fold change /veh TMEM51 (11727254_a_at) / RFU PIWIL2 (11732686_x_at) / Fold change /veh PIWIL2 (11732686_x_at) / RFU ORM1 (11744905_x_at) / Fold change /veh ORM1 (11744905_x_at) / RFU CCDC152 (11743942_at) / Fold change /veh CCDC152 (11743942_at) / RFU ECM1 (11717891_a_at) / Fold change /veh ECM1 (11717891_a_at) / RFU IL23R (11748794_a_at) / Fold change /veh IL23R (11748794_a_at) / RFU TNFAIP8L3 (11732012_x_at) / Fold change /veh TNFAIP8L3 (11732012_x_at) / RFU MBOAT4 (11741988_at) / Fold change /veh MBOAT4 (11741988_at) / RFU 11764193_at / Fold change /veh 11764193_at / RFU TMEM53 (11763286_at) / Fold change /veh TMEM53 (11763286_at) / RFU MAGEB2 (11727129_at) / Fold change /veh MAGEB2 (11727129_at) / RFU TMEM200A (11744735_a_at) / Fold change /veh TMEM200A (11744735_a_at) / RFU CCDC152 (11751479_a_at) / Fold change /veh CCDC152 (11751479_a_at) / RFU FAM211A (11726209_a_at) / Fold change /veh FAM211A (11726209_a_at) / RFU RGS16 (11746705_a_at) / Fold change /veh RGS16 (11746705_a_at) / RFU VCAN (11755009_s_at) / Fold change /veh VCAN (11755009_s_at) / RFU RHOB (11743442_s_at) / Fold change /veh RHOB (11743442_s_at) / RFU RGS16 (11720943_a_at) / Fold change /veh RGS16 (11720943_a_at) / RFU RGS16 (11720944_at) / Fold change /veh RGS16 (11720944_at) / RFU, VPS4B / Fold change vs veh, VPS4B / RFU, CREB1 / Fold change vs veh, CREB1 / RFU, DNAJC13 / Fold change vs veh, DNAJC13 / RFU, GNAQ / Fold change vs veh, GNAQ / RFU, CDK5R1 / Fold change vs veh, CDK5R1 / RFU, ZRANB3 / Fold change vs veh, ZRANB3 / RFU, CUL4A / Fold change vs veh, CUL4A / RFU, CCNY / Fold change vs veh, CCNY / RFU, UFL1 / Fold change vs veh, UFL1 / RFU, COG3 / Fold change vs veh, COG3 / RFU, DIAPH2 / Fold change vs veh, DIAPH2 / RFU, SKA2 / Fold change vs veh, SKA2 / RFU, AFF3 / Fold change vs veh, AFF3 / RFU, LMF1 / Fold change vs veh, LMF1 / RFU, IPO11 / Fold change vs veh, IPO11 / RFU, DFFB / Fold change vs veh, DFFB / RFU, FOXP1 / Fold change vs veh, FOXP1 / RFU, CARD8 / Fold change vs veh, CARD8 / RFU, STRN3 / Fold change vs veh, STRN3 / RFU, ADK / Fold change vs veh, ADK / RFU, RASSF2 / Fold change vs veh, RASSF2 / RFU, WIPF1 / Fold change vs veh, WIPF1 / RFU, LARP1B / Fold change vs veh, LARP1B / RFU, RASA1 / Fold change vs veh, RASA1 / RFU, RB1 / Fold change vs veh, RB1 / RFU, PPFIA1 / Fold change vs veh, PPFIA1 / RFU, MAT2A / Fold change vs veh, MAT2A / RFU, CCT5 / Fold change vs veh, CCT5 / RFU, WDR92 / Fold change vs veh, WDR92 / RFU, CUX1 / Fold change vs veh, CUX1 / RFU, TTC7A / Fold change vs veh, TTC7A / RFU, TMEM135 / Fold change vs veh, TMEM135 / RFU, DEPTOR / Fold change vs veh, DEPTOR / RFU, CPM / Fold change vs veh, CPM / RFU, DNAJB6 / Fold change vs veh, DNAJB6 / RFU, CACNA2D3 / Fold change vs veh, CACNA2D3 / RFU, DTX4 / Fold change vs veh, DTX4 / RFU, TFCP2 / Fold change vs veh, TFCP2 / RFU, GMCL1 /// GMCL1P1 / Fold change vs veh, GMCL1 /// GMCL1P1 / RFU, AEBP2 / Fold change vs veh, AEBP2 / RFU, SNHG1 /// SNORD22 /// SNORD25 /// SNORD26 /// SNORD27 /// SNORD28 /// SNORD29 /// SNORD31 / Fold change vs veh, SNHG1 /// SNORD22 /// SNORD25 /// SNORD26 /// SNORD27 /// SNORD28 /// SNORD29 /// SNORD31 / Fold change (Aza/veh), C12orf56 (ProbeSet 11735607_a_at) / Fold change (ACY-1035/veh), C12orf56 (ProbeSet 11735607_a_at) / Fold change (Aza/veh), FGFR1OP (ProbeSet 11751329_s_at) / Fold change (ACY-1035/veh), FGFR1OP (ProbeSet 11751329_s_at) / Fold change (Aza/veh), VPS36 (ProbeSet 11739960_a_at) / Fold change (ACY-1035/veh), VPS36 (ProbeSet 11739960_a_at) / RFU SYPL1 (11715823_x_at) / Fold change /veh SYPL1 (11715823_x_at) / RFU IGFBP7 (11715501_s_at) / Fold change /veh IGFBP7 (11715501_s_at) / RFU REEP3 (11722064_at) / Fold change /veh REEP3 (11722064_at) / RFU IGLL1 (11728026_x_at) / Fold change /veh IGLL1 (11728026_x_at): dose or concentration left out as unconfirmed
Conditions: ProbeSet 11726703_a_at; LIST B

For `Nc1ccc(-c2cccs2)cc1NC(=O)c1ccc2c(c1)cc(C1CC1)n2CCN1CCOCC1` [ACY-1035], the “Fold change vs veh, BCL10” value was 0.84.
